Converted amounts (≈) assume the structure as drawn. Like-named read-outs stand apart in the source and are kept apart here.
Columns and labels:
[1] = test system: K. pneumoniae NVT1001 and its ΔompK35/36 and/or ΔramR mutants; test: Etest MIC, OmpK35/36 loss and AcrAB-TolC overexpression (ΔramR) strains (Table 6); assay type: cell-based, Klebsiella pneumoniae; details: Klebsiella pneumoniae
Summary of the method: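 First, Etest determined each antibiotic's MIC, and intermediate results were adjusted upward to the next doubling dilution. Next, ceftazidime and cefotaxime were titrated in broth according to CLSI recommendations. Finally, results were interpreted with CLSI 2017 breakpoints, substituting CLSI 2015 for cephalothin and EUCAST 2017 for moxifloxacin.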

[2] = test system: K. pneumoniae NVT1001 ΔramRΔompK35/36 mutant and its revertants; test: Etest MIC, ΔramRΔompK35/36 mutant and its revertants (Table 7); assay type: cell-based; details: Klebsiella pneumoniae
[3] = test system: K. pneumoniae NVT1001 and ΔramR strains with tet resistance gene plasmids; test: Etest MIC of tetracyclines, AcrAB-TolC overexpression (ΔramR) and/or tet resistance gene (Table 14); assay type: cell-based, Klebsiella pneumoniae; details: for MIC: Klebsiella pneumoniae
Protocol: DNA fragments of the resistance genes along with their flanking regions were amplified from clinical plasmids via PCR with specific primer pairs. The resulting PCR fragments were digested and then cloned into the plasmid pACYC177 or pACYC184. The resulting plasmids were then transformed into K. pneumoniae strain NVT1001 via electroporation. The recombinant bacteria were plated onto LB agar plates containing kanamycin (50 mg/L) or chloramphenicol (50 mg/L), and the presence of the cloned gene was confirmed via PCR and DNA sequencing.
(§1) The MICs of antibiotics were determined using the Etest (Biodisk AB, Sweden) according to the manufacturer's instructions. The MICs from the Etest, which fall between standard two-fold dilutions, were rounded up to the next highest two-fold value. The MICs of ceftazidime and cefotaxime against K. pneumoniae NVT1001 harbouring the pACYC177 plasmid with blaOXA-48 were further determined using a broth microdilution test according to the recommendations of the CLSI,^25 and the results were interpreted according to the breakpoints established by the CLSI in 2017.^25 Meanwhile, due to the lack of CLSI breakpoints in 2016 and 2017, the results for cephalothin were interpreted according to the breakpoints established by the CLSI in 2015,^26 and the results for moxifloxacin were interpreted according to the breakpoints established by the EUCAST in 2017.^27

[4] = test system: A. baumannii KW1 and its AdeR/AdeS mutants; test: Etest MIC, AdeABC overexpression via AdeR or AdeS mutation (Table 16); assay type: cell-based, Acinetobacter baumannii; details: Acinetobacter baumannii
Text: DNA fragments of the entire adeR, adeS, gyrA and parC along with their flanking regions were amplified from A. baumannii KW1 using PCR with specific primer pairs and then cloned into plasmid pUT-KB. The QuikChange site-directed mutagenesis kit (Stratagene) was used to generate mutations in the adeR, adeS, gyrA and parC genes in the plasmids using the methods described by the manufacturer. For homologous recombination, plasmids containing mutations in the adeR, adeS, gyrA or parC gene were transformed into E. coli S17-1 λpir^23 via electroporation and mobilized into A. baumannii KW1 via conjugation. Single-crossover strains were selected from Luria-Bertani (LB) plates supplemented with cefotaxime (1 μg/ml) and kanamycin ([…]), as the growth of non-A. baumannii contaminants is suppressed by cefotaxime (1 μg/ml). The kanamycin-resistant transconjugants were selected and the insertion of plasmids was verified via PCR. After incubation in 20 ml brain heart infusion (BHI) broth for 6 hours in the absence of kanamycin at 37° C., the fully grown cultures were spread onto LB plates supplemented with 10% sucrose. After the double crossover occurred, the sucrose-resistant and kanamycin-susceptible colonies were selected, and the gene mutations were confirmed via PCR.
as §1

[5] = test system: A. baumannii KW1 strains with tet resistance gene plasmids; test: Etest MIC of tetracyclines, tet resistance gene (Table 20); assay type: cell-based, Acinetobacter baumannii; details: for MIC: Acinetobacter baumannii
Protocol: DNA fragments of the resistance genes along with their flanking regions were amplified from clinical plasmids via PCR with specific primer pairs. The resulting PCR fragments were digested and then cloned into the plasmid pYMAb5 or pYMAb5Tc. The resulting plasmids were then transformed into A. baumannii KW1 via electroporation.
as §1

CN(C)c1cc(NC(=O)CNC(C)(C)C)c(O)c2c1C[C@H]1C[C@H]3[C@H](N(C)C)C(O)=C(C(N)=O)C(=O)[C@@]3(O)C(O)=C1C2=O [Tigecycline, tigecycline]
MIC ([1]; WT, NVT1001, read-out: MIC): 1 µg/mL (≈ 1.71 µM)
MIC ([1]; Δ35, ΔompK35 mutant): 1 µg/mL (≈ 1.71 µM)
MIC ([1]; Δ35/36, ΔompK35/36 mutant): 1 µg/mL (≈ 1.71 µM)
MIC ([1]; Δ36, ΔompK36 mutant): 1 µg/mL (≈ 1.71 µM)
MIC ([1]; ΔramR mutant): 8 µg/mL (≈ 13.7 µM)
MIC ([1]; ΔramRΔ35, ΔramRΔompK35 mutant): 8 µg/mL (≈ 13.7 µM)
MIC ([1]; ΔramRΔ35/36, ΔramRΔompK35/36 mutant): 8 µg/mL (≈ 13.7 µM)
MIC ([1]; ΔramRΔ36, ΔramRΔompK36 mutant): 8 µg/mL (≈ 13.7 µM)
MIC ([2]; ΔramRΔompK35/36::ompK35/36 revertant): 8 µg/mL
MIC ([2]; ΔramRΔompK35/36::ompK35 revertant): 8 µg/mL
MIC ([2]; ΔramRΔompK35/36::ompK36 revertant): 8 µg/mL
MIC ([2]; ΔramRΔompK35/36::ramR revertant): 1 µg/mL
MIC ([2]; ΔramRΔompK35/36::ramR::ompK35/36 revertant): 1 µg/mL
MIC ([2]; ΔramRΔompK35/36::ramR::ompK35 revertant): 1 µg/mL
MIC ([2]; ΔramRΔompK35/36::ramR::ompK36 revertant): 1 µg/mL
MIC ([2]; ΔramRΔompK35/36 mutant): 8 µg/mL
MIC ([3]; NVT1001, Tet(A) on pACYC177, read-out: MIC): 8 µg/mL
MIC ([3]; NVT1001, Tet(B) on pACYC177, read-out: MIC): 1 µg/mL
MIC ([3]; NVT1001, Tet(C) on pACYC177, read-out: MIC): 1 µg/mL
MIC ([3]; NVT1001, Tet(D) on pACYC177, read-out: MIC): 1 µg/mL
MIC ([3]; NVT1001, Tet(M) on pACYC177, read-out: MIC): 1 µg/mL
MIC ([3]; NVT1001, no supplemental plasmid, read-out: MIC): 1 µg/mL
MIC ([3]; ΔramR, Tet(A) on pACYC177): 32 µg/mL
MIC ([3]; ΔramR, Tet(B) on pACYC177): 8 µg/mL
MIC ([3]; ΔramR, Tet(C) on pACYC177): 8 µg/mL
MIC ([3]; ΔramR, Tet(D) on pACYC177): 8 µg/mL
MIC ([3]; ΔramR, Tet(M) on pACYC177): 8 µg/mL
MIC ([3]; ΔramR, no supplemental plasmid): 8 µg/mL
increase in the MIC ([3]; Tet(A) production): 8 fold
effects on the MIC ([3]; production of Tet(B), Tet(C), Tet(D) or Tet(M), with or without ΔramR): no observable effects
increase in the MIC ([3]; {}): 8 fold
MIC ([4]; A91V mutant (AdeR)): 3 µg/mL
MIC ([4]; A94V mutant (AdeS)): 2 µg/mL
MIC ([4]; D20N mutant (AdeR)): 2 µg/mL
MIC ([4]; G30D mutant (AdeS)): 3 µg/mL
MIC ([4]; KW1, read-out: MIC): 0.25 µg/mL
MIC ([4]; P116L mutant (AdeR)): 1.5 µg/mL
MIC ([4]; R152K mutant (AdeS)): 2 µg/mL
MIC ([4]; T153M mutant (AdeS)): 3 µg/mL
MIC ([5]; KW1, Tet(A) on pYMAb5): 1 µg/mL
MIC ([5]; KW1, Tet(B) on pYMAb5): 0.38 µg/mL
MIC ([5]; KW1, Tet(M) on pYMAb5): 0.38 µg/mL
MIC ([5]; KW1, no supplemental plasmid): 0.38 µg/mL
MIC ([5]; KW1 with shuttle vector pYMAb5): 0.38 µg/mL
effects on the MIC ([5]; production of Tet(B) or Tet(M)): no observable effects
